This is an account of results in article PMC8910920 (International Journal of Molecular Sciences, 2022).

By inhibition is commonly meant the drop in the measured response relative to a control, in per cent.

SMILES strings stand for the structures.

The subject of assay [1] is CCI rats, mechanical hypersensitivity. Description: CCI model of neuropathic pain, mechanical sensitivity (automatized von Frey test). Type of assay: in vivo, rat. The protocol: The CCI model of neuropathic pain allowed the evaluation of the effect RGM8-51 on cold, heat and mechanical sensitivity, as assayed by the acetone test, the Hargreaves test, and the automatized von Frey test, respectively. RGM8-51 was applied either locally (i.pl.; 10 µg) in the affected paw or systemically (intraperitoneally, i.p., 10 and 30 mg/kg) and the effect evaluated before (Baseline) and after CCI surgery. The nocifensive response after administration of RGM8-51 was compared with that of vehicle, while non-operated animals and the uninjured (contralateral) hind paw in CCI animals were used as controls.
Adult male Sprague-Dawley rats (weighing 200–220 g/6–8 weeks old) were used in these experiments. All experimental procedures were conducted according to the animal welfare guidelines of the European Community (European Directive 2010/63/UE) to minimize animal suffering and were approved by Universidad Complutense de Madrid and Comunidad de Madrid ethical committees on animal experimentation (PROEX 207.8/21). […]
For behavioral testing, rats were placed in individual methacrylate boxes with a wire mesh floor, and after a period of 15 min acclimatization, the cold, heat and mechanical sensitivity of the ipsilateral and contralateral paws was determined. Cold sensitivity was assessed with the acetone test. In total, 100 µL acetone were locally applied to the plantar surface of the hind paw and the duration of the subsequent nocifensive response (licking, brushing, and flinching of the paw) was determined during 60 s. Acetone application and assessment were repeated 2 times with a 5 min interval and the sum of the two values was recorded. Heat sensitivity was determined with the Hargreaves test, which uses infrared light as a heat source, with a Hargreaves apparatus (Serie 8, Model 336, IITC Life Science, Woodland Hills, CA USA). The light beam was directed to the plantar surface of the hind paw and the time from the beginning of irradiation to the appearance of first paw withdrawal movement was measured (paw withdrawal latency). […]

A further assay has as its target T1, hM3 (Homo sapiens, UniProt P20309).
T1 construct: host or cells: CHO
Description: Radioligand binding assay, CHO cells, hM3. The settings on record: radioligand [3H]4-DMAP. The protocol:
To define whether β–lactam derivative RGM8-51 could bind to CGRPR, CB2 and M3 receptors, in vitro binding assays were performed, using CHO cell lines transfected with these receptors. The degree of binding was determined by using specific radioligands for each receptor (Table 2, footnote).
These studies were subcontracted to Eurofins-CEREP or Eurofins-PANLABS. Briefly, agonists and antagonist assays were performed in cell cultures overexpressing the corresponding channel (CHO: TRPV1 and TRPA1; HEK293: TRPV3 and ASIC3). In vitro pharmacology, cellular channel functional assays: the compound was prepared in assay buffer to the final concentration, 10 μM. […] The agonist assay was conducted on fluorimeter instruments where the test compound, vehicle controls, and reference agonist were added to the assay plate after a fluorescence baseline was established. […] For the antagonist assay, the compound was pre-incubated for five minutes at room temperature, and then challenged with the EC80 concentration of the reference agonist after establishment of a fluorescence baseline. […] Binding assay results are expressed as a percent of control specific binding. […] Aqueous solubility (μM) was determined by comparing the peak area of the principal peak in a calibration standard (200 μM) containing organic solvent (methanol/water, 60/40, v/v) with the peak area of the corresponding peak in a buffer sample. […]

T1 sequence (P20309 whole entry): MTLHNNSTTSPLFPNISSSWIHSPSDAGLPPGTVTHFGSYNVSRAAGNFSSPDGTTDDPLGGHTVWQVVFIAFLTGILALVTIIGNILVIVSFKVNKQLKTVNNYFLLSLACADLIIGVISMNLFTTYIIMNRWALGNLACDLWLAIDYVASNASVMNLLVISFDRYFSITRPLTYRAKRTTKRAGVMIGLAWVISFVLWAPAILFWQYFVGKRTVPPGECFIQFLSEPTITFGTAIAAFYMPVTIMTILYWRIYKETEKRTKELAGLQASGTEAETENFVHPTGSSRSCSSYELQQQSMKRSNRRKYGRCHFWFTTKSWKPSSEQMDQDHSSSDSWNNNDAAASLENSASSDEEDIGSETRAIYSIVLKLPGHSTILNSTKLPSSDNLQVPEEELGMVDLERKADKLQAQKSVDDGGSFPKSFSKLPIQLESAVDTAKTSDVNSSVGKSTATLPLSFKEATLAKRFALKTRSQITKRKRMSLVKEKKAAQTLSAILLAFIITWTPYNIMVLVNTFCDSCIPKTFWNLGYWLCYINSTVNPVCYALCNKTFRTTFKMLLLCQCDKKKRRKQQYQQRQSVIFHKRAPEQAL

Consider `C[C@@H]1C(=O)N(C[C@H](Cc2ccccc2)N(Cc2ccccc2)Cc2ccccc2)[C@]1(Cc1ccccc1)C(=O)OC(C)(C)C` [RGM8-51, 4(S)-Benzyl-3S-methyl-4-(tert-butoxy)carbonyl-1-[(2′S-dibenzylamino-3′-phenyl)prop-1′-yl]-2-oxoazetidine], for which the “mechanical sensitivity in the absence of neuropathy” value in assay [1] (baseline, non-operated) was “could not be observed”. Further, the “mechanical hypersensitivity (paw withdrawal threshold) in CCI rats” value is recorded as “dose-dependently reverted paw withdrawal thresholds” in assay [1] (i.p. 10 and 30 mg/kg); “effect also being produced” in assay [1] (local (i.pl.) 10 µg). Also, the “Binding hM3 (%), inhibition of specific binding” value at hM3 (10 μM) was “did not show significant affinity”. The inhibition at 10 µM on hM3 (read-out: Binding hM3 (%), inhibition of specific binding) is -4.1 ± 3.1%.
